Reference: patent publication US7169761B2, “Azulene derivatives and salts thereof” (Astellas Pharma Inc., priority 2002, dated 2007)

Legend:
human SGLT2 = target: T1, human SGLT2 (Homo sapiens, UniProt P31639); assay: Inhibition of human Na+-glucose cotransporter (human SGLT2) activity: methyl-α-D-glucopyranoside intake in CHO cells stably expressing human SGLT2; format: cell-based; settings: inhibition of methyl-α-D-(U-14C)glucopyranoside intake, CHO cells stably expressing human SGLT2, 37° C., two hours
T1 construct: expressed in transfected cells; host or cells: CHO-K1
T1 sequence (P31639 1-672): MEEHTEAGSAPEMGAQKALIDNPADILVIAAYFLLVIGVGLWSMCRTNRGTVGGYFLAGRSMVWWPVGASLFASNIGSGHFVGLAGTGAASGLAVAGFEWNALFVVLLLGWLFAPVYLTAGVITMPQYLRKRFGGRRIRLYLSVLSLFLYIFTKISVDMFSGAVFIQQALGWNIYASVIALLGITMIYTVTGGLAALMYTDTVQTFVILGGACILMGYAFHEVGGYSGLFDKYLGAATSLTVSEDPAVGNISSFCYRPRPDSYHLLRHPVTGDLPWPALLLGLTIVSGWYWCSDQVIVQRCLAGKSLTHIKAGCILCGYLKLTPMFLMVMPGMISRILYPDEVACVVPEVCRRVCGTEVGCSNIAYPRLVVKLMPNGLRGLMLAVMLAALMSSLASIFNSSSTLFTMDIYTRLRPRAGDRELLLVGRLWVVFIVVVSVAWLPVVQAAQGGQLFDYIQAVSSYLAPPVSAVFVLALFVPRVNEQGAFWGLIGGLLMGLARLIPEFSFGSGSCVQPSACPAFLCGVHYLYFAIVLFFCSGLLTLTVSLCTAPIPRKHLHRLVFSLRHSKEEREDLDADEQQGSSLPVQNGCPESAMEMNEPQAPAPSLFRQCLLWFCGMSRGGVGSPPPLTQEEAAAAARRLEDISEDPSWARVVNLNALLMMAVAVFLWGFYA
Text: [Inhibition of Human Na^+-Glucose Cotransporter (Human SGLT2) Activity]
(1) Preparation of Human SGLT 2 Expression Vector
First, single-strand cDNA was reversely transcripted from total RNA originating from the human kidney (manufactured by BD Biosciences Clontech) using a Superscript II (manufactured by Invitrogen Corporation) and a random hexamer. Second, using the cDNA as a template, a DNA fragment encoding a human SGLT2 (Wells, R. G. et al., Am. J. Physiol., 1992, 263(3) F459) was amplified by the PCR reaction using Pyrobest DNA polymerase (manufactured by Takara Bio Inc.). That is, a Hind III site and an EcoRI site were inserted into the 5′ side and the 3′ side of the DNA fragment, respectively by using primers.
The amplified fragment was cloned into a pCR2.1-Topo vector using a Topo TA Cloning Kit (manufactured by Invitrogen Corporation) and the cloned vector was transfected into a competent cell of Escherichia coli JM109. Ampicillin-resistant clones were cultured in a LB medium containing ampicillin (100 mg/l). A plasmid was purified from the cultured Escherichia coli using the method of Hanahan (see Maniatis et al., “Molecular Cloning”). A DNA fragment for encoding a human SGLT2 was obtained by the Hind III/EcoRI digestion of the plasmid and ligated and cloned to the same site of the expression vector pcDNA 3.1 (manufactured by Invitrogen Corporation) using a DNA ligase (manufactured by Roche Diagnostics). The ligated clone was transfected into a competent cell of Escherichia coli JM109 in the same manner as described above and cultured in a LB medium containing ampicillin, and a human SGLT2 expression vector was obtained using the method of Hanahan.
(2) Preparation of Human SGLT2 Expressed Cells
The human SGLT2 expression vector was transfected into a CHO-K1 cell using Lipofectamine2000 (manufactured by Invitrogen Corporation). The cell was cultured in a Ham's F12 medium (manufactured by Nissui Pharmaceutical Co., Ltd.) containing penicillin (50 IU/ml, manufactured by Dainippon Pharmaceutical Co., Ltd.), streptomycin (50 μg/ml, manufactured by Dainippon Pharmaceutical Co., Ltd.), Geneticin (40 μg/ml, manufactured by Invitrogen Corporation), and 10% fetal bovine serum in the presence of 5% CO2 at 37° C. for two weeks, and Geneticin-resistant clones were obtained.
(3) Inhibition of Methyl-α-D-Glucopyranoside Intake
After removing the medium of a CHO cell which stably expresses the human SGLT2, a pretreatment buffer solution (buffer solution of pH 7.4 containing choline chloride (140 mM), potassium chloride (2 mM), calcium chloride (1 mM), magnesium chloride (1 mM), 2-[4-(2-hydroxyethyl)1-piperazinyl]ethanesulfonic acid (10 mM), and tris(hydroxymethyl) aminomethane (5 mM)) was added in the amount of 100 μl per well, and incubated at 37° C. for 20 minutes.
11 μl of methyl-α-D-(U-14C) glucopyranoside (manufactured by Amersham Pharmacia Biotech) was mixed with 1,000 μl of a buffer solution for intake containing a test compound (buffer solution of pH 7.4 containing sodium chloride (140 mM), potassium chloride (2 mM), calcium chloride (1 mM), magnesium chloride (1 mM), methyl-α-D-glucopyranoside (50 μM), 2-[4-(2-hydroxyethyl)1-piperazinyl]ethanesulfonic acid (10 mM), and tris(hydroxymethyl)aminomethane (5 mM)) to prepare a buffer solution for intake. A buffer solution for intake without a test compound was prepared for a control group. A buffer solution for basal intake without a test compound containing coline chloride (140 mM) instead of sodium chloride for measuring the basal intake was prepared as well.
After removing the pretreatment buffer solution, the buffer solution for intake was added (25 μl per well) and incubated at 37° C. for two hours. […]

[1] = system: blood glucose of KK-A^y mice; assay: Hypoglycemic activity confirmation test in fed KK-Ay mice; format: in vivo, mouse; settings: rate of decrease in blood glucose AUC 0–8 hours vs control group; fed male KK-A^y mice, oral, 3 mg/10 ml suspension at 10 ml/kg
Method: [Hypoglycemic Activity Confirmation Test]
Fed KK-A^y mice (CLEA Japan, Inc., male) were used. The test compound was suspended in 0.5% methylcellulose solution to a concentration of 3 mg/10 ml. The weight of each mouse was measured. The test compound suspension was orally administered forcibly to the mice at a dose of 10 ml/kg. Only 0.5% methylcellulose solution was administered to the mice of a control group. Each group consisted of six mice. Blood was collected from the tail vein immediately before administering the compound and one, two, four, and eight hours after administering the compound. The blood glucose value was measured using a glucose CII Test Wako (manufactured by Wako Pure Chemical Industries, Ltd.). The intensity of hypoglycemic activity was determined by calculating the area under the blood glucose value-time curve (AUC) using a trapezoidal method from the glucose value of 0–8 hours after administering the compound and calculating the rate (%) of the decrease in the AUC of the drug-administered group from that of the control group.

IC50 (human SGLT2) [nM]	SMILES	Hypoglycemic activity [1] [%]
16	COc1ccc(Cc2cc3cccccc-3c2)cc1[C@@H]1O[C@H](CO)[C@@H](O)[C@H](O)[C@H]1O [Example 28]	46
99	OC[C@H]1O[C@@H](c2cccc(Cc3ccc4cccc-4cc3)c2)[C@H](O)[C@@H](O)[C@@H]1O [Example 21]	–
8.9	OC[C@H]1O[C@@H](c2cc(Cc3cc4cccccc-4c3)ccc2O)[C@H](O)[C@@H](O)[C@@H]1O [Example 75, (1S)-1,5-anhydro-1-[5-(azulen-2-ylmethyl)-2-hydroxyphenyl]-D-glucitol]	–
29	Cc1ccc(Cc2cc3cccccc-3c2)cc1[C@@H]1O[C@H](CO)[C@@H](O)[C@H](O)[C@H]1O [Example 11]	–
22	OC[C@H]1O[C@@H](c2cccc(Cc3cc4cccccc-4c3)c2)[C@H](O)[C@@H](O)[C@@H]1O [Example 25]	–
5.7	COc1cc(OC)c([C@@H]2O[C@H](CO)[C@@H](O)[C@H](O)[C@H]2O)cc1Cc1cc2cccccc-2c1 [Example 60, (1S)-1,5-anhydro-1-[5-(azulen-2-ylmethyl)-2,4-dimethoxyphenyl]-D-glucitol]	45
16	CCOc1ccc(Cc2cc3cccccc-3c2)cc1[C@@H]1O[C@H](CO)[C@@H](O)[C@H](O)[C@H]1O [Example 7, (1S)-1,5-anhydro-1-[5-(azulen-2-ylmethyl)-2-ethoxyphenyl]-D-glucitol]	–
